# What was measured:
# MV4-11 cells = test: Inhibition of MV4-11 cell proliferation (CellTiterGlo, 72 h); assay type: cell-based; conditions: Homo sapiens; 72 h growth inhibition; uncertainty ±20%
# [1] = biological target: T1, isolated kinase domain of the human FLT3 receptor (a.a. 571-993) (Homo sapiens, UniProt P36888); test: FLT3 fluorescence polarization kinase assay; assay type: biochemical; conditions: 150 uM ATP; uncertainty ±10%
# T1 construct: human FLT3 receptor (a.a. 571-993)
# T1 sequence (P36888 571-993): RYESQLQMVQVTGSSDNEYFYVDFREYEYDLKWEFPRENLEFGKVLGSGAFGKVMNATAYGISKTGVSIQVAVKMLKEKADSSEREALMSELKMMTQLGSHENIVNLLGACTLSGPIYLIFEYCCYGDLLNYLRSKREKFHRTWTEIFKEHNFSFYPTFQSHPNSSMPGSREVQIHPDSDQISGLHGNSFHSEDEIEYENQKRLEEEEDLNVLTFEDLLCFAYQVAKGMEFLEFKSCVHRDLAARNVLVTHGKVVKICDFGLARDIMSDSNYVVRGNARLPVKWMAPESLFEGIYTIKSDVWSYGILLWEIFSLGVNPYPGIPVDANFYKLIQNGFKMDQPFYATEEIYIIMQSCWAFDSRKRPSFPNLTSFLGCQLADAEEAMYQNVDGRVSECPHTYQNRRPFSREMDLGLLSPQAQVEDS
SMILES,IC50 (MV4-11 cells) [nM],IC50 [1] [nM]
"CC(C)Oc1ccc(NC(=O)N2CCC(c3ncnc4cc(OCCCNS(C)(=O)=O)ccc34)CC2)cc1 [Example 65, 4-[7-(3-Methanesulfonylamino-propoxy)-quinazolin-4-yl]-piperidine-1-carboxylic acid (4-isopropoxy-phenyl)-amide]",27,19
"CC(C)Oc1ccc(NC(=O)N2CCC(c3ncnc4cc(OCCCN5CCCC5=O)ccc34)CC2)cc1 [Example 67, 4-{7-[3-(2-Oxo-pyrrolidin-1-yl)-propoxy]-quinazolin-4-yl}-piperidine-1-carboxylic acid (4-isopropoxy-phenyl)-amide]",9,3
"COc1cc2ncnc(C3CCN(C(=O)Nc4ccc(C5=CCN(C(=O)OC(C)(C)C)CC5)cc4)CC3)c2cc1OC [Example 61, 4-(4-{[4-(6,7-Dimethoxy-quinazolin-4-yl)-piperidine-1-carbonyl]-amino}-phenyl)-3,6-dihydro-2H-pyridine-1-carboxylic acid tert-butyl ester]",6000,8500
"CC(=O)N1CCN(CCCOc2ccc3c(C4CCN(C(=O)Nc5ccc(N6CCOCC6)cc5)CC4)ncnc3c2)CC1 [Example 117, 4-{7-[3-(4-Acetyl-piperazin-1-yl)-propoxy]-quinazolin-4-yl}-piperidine-1-carboxylic acid (4-morpholin-4-yl-phenyl)-amide]",171,94
"COc1cc2ncnc(C3CCN(C(=O)Nc4ccc(Oc5ccccc5)cc4)CC3)c2cc1OC [Example 47, 4-(6,7-Dimethoxy-quinazolin-4-yl)-piperidine-1-carboxylic acid (4-phenoxy-phenyl)-amide]",122,35
"COc1cc2ncnc(C3CCN(C(=O)Nc4ccccc4)CC3)c2cc1OC [Example 45, 4-(6,7-Dimethoxy-quinazolin-4-yl)-piperidine-1-carboxylic acid phenylamide]",16700,3700
"COc1cc2ncnc(C3CCN(C(=O)NC4CCC(C(C)(C)C)CC4)CC3)c2cc1OC (stereo not shown) [Example 54, 4-(6,7-Dimethoxy-quinazolin-4-yl)-piperidine-1-carboxylic acid (4-tert-butyl-cyclohexyl)-amide]",224,170
"CC(C)Oc1ccc(NC(=O)N2CCC(c3ncnc4ccc(OCCCN5CCCC5=O)cc34)CC2)cc1 [Example 101, 4-{6-[3-(2-Oxo-pyrrolidin-1-yl)-propoxy]-quinazolin-4-yl}-piperidine-1-carboxylic acid (4-isopropoxy-phenyl)-amide]",34,0.8
"CC(C)Oc1ccc(NC(=O)N2CCC(c3ncnc4cc(OCCN5CCOC5=O)ccc34)CC2)cc1 [Example 79, 4-{7-[2-(2-Oxo-oxazolidin-3-yl)-ethoxy]-quinazolin-4-yl}-piperidine-1-carboxylic acid (4-isopropoxy-phenyl)-amide]",44,58
"CS(=O)(=O)OCCCOc1ccc2c(C3CCN(C(=O)Nc4ccc(N5CCOCC5)cc4)CC3)ncnc2c1 [Example 122, Methanesulfonic acid 3-{4-[1-(4-morpholin-4-yl-phenylcarbamoyl)-piperidin-4-yl]-quinazolin-7-yloxy}-propyl ester]",136,23
"CN1CCC(COc2ccc3c(C4CCN(C(=O)Nc5ccc(OC6CCC6)nc5)CC4)ncnc3c2)CC1 [Example 107, 4-[7-(1-Methyl-piperidin-4-ylmethoxy)-quinazolin-4-yl]-piperidine-1-carboxylic acid (6-cyclobutoxy-pyridin-3-yl)-amide]",23,1
"COc1cc2ncnc(C3CCN(C(=O)Nc4ccc(-c5ccco5)cc4)CC3)c2cc1OC [Example 59, 4-(6,7-Dimethoxy-quinazolin-4-yl)-piperidine-1-carboxylic acid (4-furan-2-yl-phenyl)-amide]",269,220
"COc1cc2ncnc(C3CCN(C(=O)Nc4ccc(OC(C)C)nc4)CC3)c2cc1OC [Example 56, 4-(6,7-Dimethoxy-quinazolin-4-yl)-piperidine-1-carboxylic acid (6-isopropoxy-pyridin-3-yl)-amide]",189,30
"CC(C)Oc1ccc(NC(=O)N2CCC(c3ccnc4ccccc34)CC2)cc1 [Example 6, 4-Quinolin-4-yl-piperidine-1-carboxylic acid (4-isopropoxy-phenyl)-amide]",280,84
"COc1cc2ncnc(C3CCN(C(=O)Nc4ccc(C(C)O)cc4)CC3)c2cc1OC (stereo not shown) [Example 55, 4-(6,7-Dimethoxy-quinazolin-4-yl)-piperidine-1-carboxylic acid [4-(1-hydroxy-ethyl)-phenyl]-amide]",2600,1100
"CN1CCC(COc2ccc3c(C4CCN(C(=O)Nc5ccc(N6CCOCC6)cc5)CC4)ncnc3c2)CC1 [Example 94, 4-[7-(1-Methyl-piperidin-4-ylmethoxy)-quinazolin-4-yl]-piperidine-1-carboxylic acid (4-morpholin-4-yl-phenyl)-amide]",60,1
"CS(=O)(=O)NCCCOc1ccc2c(C3CCN(C(=O)Nc4ccc(N5CCOCC5)cc4)CC3)ncnc2c1 [Example 66, 4-[7-(3-Methanesulfonylamino-propoxy)-quinazolin-4-yl]-piperidine-1-carboxylic acid (4-morpholin-4-yl-phenyl)-amide]",14,18
"CN(C)C(=O)N1CCN(CCCOc2ccc3c(C4CCN(C(=O)Nc5ccc(N6CCOCC6)cc5)CC4)ncnc3c2)CC1 [Example 120, 4-(3-{4-[1-(4-Morpholin-4-yl-phenylcarbamoyl)-piperidin-4-yl]-quinazolin-7-yloxy}-propyl)-piperazine-1-carboxylic acid dimethylamide]",220,36
"COc1cc2ncnc(C3CCN(CC(=O)Nc4ccc(C(C)C)cc4)CC3)c2cc1OC [Example 9, 2-[4-(6,7-Dimethoxy-quinazolin-4-yl)-piperidin-1-yl]-N-(4-isopropyl-phenyl)-acetamide]",29,13

# Other lines, results leading:
IC50 (MV4-11 cells) [nM],IC50 [1] [nM],SMILES
47,21,"O=C(Nc1ccc(N2CCOCC2)cc1)N1CCC(c2ncnc3cc(OCCCN4CCCC4)ccc23)CC1 [Example 124, 4-[7-(3-Pyrrolidin-1-yl-propoxy)-quinazolin-4-yl]-piperidine-1-carboxylic acid (4-morpholin-4-yl-phenyl)-amide]"
70,49,O=C(Nc1ccc(N2CCOCC2)cc1)N1CCC(c2ncnc3cc(OCCCN4CCCCC4)ccc23)CC1 [Example 75]
54,27,"O=C1CCCN1CCCOc1ccc2c(C3CCN(C(=O)Nc4ccc(N5CCOCC5)nc4)CC3)ncnc2c1 [Example 72, 4-{7-[3-(2-Oxo-pyrrolidin-1-yl)-propoxy]-quinazolin-4-yl}-piperidine-1-carboxylic acid (6-morpholin-4-yl-pyridin-3-yl)-amide]"
187,73,"O=C1CCCN1CCCOc1ccc2c(C3CCN(C(=O)Nc4cnc(N5CCCC5)nc4)CC3)ncnc2c1 [Example 90, 4-{7-[3-(2-Oxo-pyrrolidin-1-yl)-propoxy]-quinazolin-4-yl}-piperidine-1-carboxylic acid (2-pyrrolidin-1-yl-pyrimidin-5-yl)-amide]"
40,1,"O=C1CCCN1CCOc1ccc2c(C3CCN(C(=O)Nc4ccc(N5CCCC5)cc4)CC3)ncnc2c1 [Example 74, 4-{7-[2-(2-Oxo-pyrrolidin-1-yl)-ethoxy]-quinazolin-4-yl}-piperidine-1-carboxylic acid (4-pyrrolidin-1-yl-phenyl)-amide]"
112,20,"O=C1CCCN1CCOc1ccc2c(C3CCN(C(=O)Nc4ccc(N5CCOCC5)nc4)CC3)ncnc2c1 [Example 83, 4-{7-[2-(2-Oxo-pyrrolidin-1-yl)-ethoxy]-quinazolin-4-yl}-piperidine-1-carboxylic acid (6-morpholin-4-yl-pyridin-3-yl)-amide]"
18,35,"CN1CCC(COc2ccc3c(C4CCN(C(=O)Nc5ccc(N6CCCC6)cc5)CC4)ncnc3c2)CC1 [Example 109, 4-[7-(1-Methyl-piperidin-4-ylmethoxy)-quinazolin-4-yl]-piperidine-1-carboxylic acid (4-pyrrolidin-1-yl-phenyl)-amide]"
12,11,"CN1CCN(CCCOc2ccc3c(C4CCN(C(=O)Nc5ccc(N6CCCC6)nc5)CC4)ncnc3c2)CC1 [Example 104, 4-{7-[3-(4-Methyl-piperazin-1-yl)-propoxy]-quinazolin-4-yl}-piperidine-1-carboxylic acid (6-pyrrolidin-1-yl-pyridin-3-yl)-amide]"
56,8,"O=C(Nc1ccc(N2CCCC2)nc1)N1CCC(c2ncnc3cc(OCCN4CCOCC4)ccc23)CC1 [Example 95, 4-[7-(2-Morpholin-4-yl-ethoxy)-quinazolin-4-yl]-piperidine-1-carboxylic acid (6-pyrrolidin-1-yl-pyridin-3-yl)-amide]"
45,6,"CN1CCCN(CCCOc2ccc3c(C4CCN(C(=O)Nc5ccc(N6CCOCC6)cc5)CC4)ncnc3c2)CC1 [Example 125, 4-{7-[3-(4-Methyl-[1,4]diazepan-1-yl)-propoxy]-quinazolin-4-yl}-piperidine-1-carboxylic acid (4-morpholin-4-yl-phenyl)-amide]"
